Measurements from patent US7265111B2, “Adenosine analogues and their use as pharmaceutical agents” (Sanofi-Aventis Deutschland GmbH, priority 2002, dated 2007).

What was measured:
[1] = molecular target: T1, Adenosine A1 receptor (Homo sapiens, UniProt P30542); assay: FLIPR intracellular Ca2+ functional assay, recombinant CHO cells (A1/Gα6qi4myr); type: cell-based; settings: read-out: EC50 values (agonist activity at adenosine receptors) A1
T1 construct: expressed in transfected cells; host or cells: CHO (Chinese hamster ovary) cells, stably double-transfected
T1 sequence (P30542 1-326): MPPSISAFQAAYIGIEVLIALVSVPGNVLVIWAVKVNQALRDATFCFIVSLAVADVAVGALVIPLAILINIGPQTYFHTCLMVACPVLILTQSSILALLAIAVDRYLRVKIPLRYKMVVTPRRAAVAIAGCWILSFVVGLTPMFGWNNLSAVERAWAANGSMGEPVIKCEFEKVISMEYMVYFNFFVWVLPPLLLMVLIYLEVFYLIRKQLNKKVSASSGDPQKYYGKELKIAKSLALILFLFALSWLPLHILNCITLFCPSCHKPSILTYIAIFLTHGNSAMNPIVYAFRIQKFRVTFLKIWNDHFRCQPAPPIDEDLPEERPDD
Protocol: (§1) In Vitro Functional Assays with Recombinant Cell Lines:
(§2) Functional assays were performed by detection of agonist-induced changes in the intracellular concentration of Ca^2+ in recombinant cell lines expressing adenosine receptor subtypes using the FLIPR™ (fluorescence imaging plate reader, Molecular Devices) technology. To allow optimal signalling through Ca^2+, chinese hamster ovary (CHO) cells were stably double-transfected with cDNAs to achieve expression of suitable combinations of adenosine receptor subtypes (A1, A2a, A2b or A3) with either G-protein Gα16 or hybrid protein Gα6qi4myr (German Patent Application no. 100333532.2). Optimal signals were achieved using combinations as follows:
(§3) For assays, recombinant cells were seeded in 96-well dishes (50000 cells/well) and grown overnight. Medium was then removed and cells incubated for 1 hour in buffer containing the dye Fluo-4. After incubation with dye, cells were washed, test compound added and changes in intracellular Ca^2+ concentration measured by FLIPR. Measured values were expressed as % change relative to controls (0%: no test compound added; 100%: 1 μM Adenosine added) and used for calculation of dose-response curves and subsequent determination of EC50 values.

[2] = molecular target: T2, Adenosine A2a receptor (Homo sapiens, UniProt P29274); assay: FLIPR intracellular Ca2+ functional assay, recombinant CHO cells (A2a/Gα16); type: cell-based
T2 construct: expressed in transfected cells; host or cells: CHO (Chinese hamster ovary) cells, stably double-transfected
Protocol: as §1, §2, §3

[3] = molecular target: T3, Adenosine A2b receptor (Homo sapiens, UniProt P29275); assay: FLIPR intracellular Ca2+ functional assay, recombinant CHO cells (A2b/Gα16); type: cell-based
T3 construct: expressed in transfected cells; host or cells: CHO (Chinese hamster ovary) cells, stably double-transfected
T3 sequence (P29275 1-332): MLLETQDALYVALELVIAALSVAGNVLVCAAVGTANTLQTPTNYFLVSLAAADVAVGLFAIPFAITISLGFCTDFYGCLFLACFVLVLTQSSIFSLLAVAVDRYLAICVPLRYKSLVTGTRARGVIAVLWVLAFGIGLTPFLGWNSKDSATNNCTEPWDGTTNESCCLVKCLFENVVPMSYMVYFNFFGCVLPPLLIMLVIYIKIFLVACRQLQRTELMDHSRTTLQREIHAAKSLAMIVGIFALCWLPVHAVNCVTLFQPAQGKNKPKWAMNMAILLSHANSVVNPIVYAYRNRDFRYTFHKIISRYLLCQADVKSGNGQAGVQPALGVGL
Protocol: as §1, §2, §3

[4] = molecular target: T4, Adenosine A3 receptor (Homo sapiens, UniProt P0DMS8); assay: FLIPR intracellular Ca2+ functional assay, recombinant CHO cells (A3/Gα6qi4myr); type: cell-based; settings: read-out: EC50 values (agonist activity at adenosine receptors) A3
T4 construct: expressed in transfected cells; host or cells: CHO (Chinese hamster ovary) cells, stably double-transfected
T4 sequence (P0DMS8 1-318): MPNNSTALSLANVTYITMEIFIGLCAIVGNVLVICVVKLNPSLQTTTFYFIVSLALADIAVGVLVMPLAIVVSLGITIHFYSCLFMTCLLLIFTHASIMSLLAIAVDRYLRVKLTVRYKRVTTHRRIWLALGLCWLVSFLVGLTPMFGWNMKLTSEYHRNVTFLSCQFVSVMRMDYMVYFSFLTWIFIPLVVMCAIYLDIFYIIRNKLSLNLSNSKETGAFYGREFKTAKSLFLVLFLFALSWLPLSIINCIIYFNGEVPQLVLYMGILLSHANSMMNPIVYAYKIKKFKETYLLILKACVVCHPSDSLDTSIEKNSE
Protocol: as §1, §2, §3

[5] = tested on: isolated guinea pig atrium; assay: Effect on the isolated guinea pig atrium (contractile force, heart rate); settings: for Contractile force: at 30 μM; for Heart rate: at 1–100 μM
Protocol: D. Effect on the Isolated Guinea Pig Atrium:
Guinea pigs of either sex were killed by a blow on the back of the neck and exsanguinated.
Their heart was taken out and the atria removed. The preparation (atrium) was immediately transferred to Ringer solution (JT 431) which was at a temperature of 32° C. and was bubbled with a mixture of 95% O2 and 5% CO2. The composition of the solution in […] was: NaCl 9.0; KCl 0.42 CaCl2 0.24; NaHCO3 0.2; glucose 1.0. The atrium beats spontaneously with an initial tension of 500 mg. The contractile force and the heart rate was recorded with a computer program and automatically calculated (B-mon and A-mon PC programs. Fa. Jäckel. Hanau. GERMANY). After equilibration, the test compound was added to a final bath concentration. N was 4-6 per concentration.

[6] = tested on: isolated rat adipocytes; assay: Antilipolytic effect in isolated rat adipocytes; type: cell-based; settings: Adipocyte, adenosine deaminase-induced lipolysis (glycerol and free fatty acid release)
Protocol: E. Antilipolytic Effect in Isolated Rat Adipocytes:
For the preparation of isolated rat adipocytes, epididymal fat pads were obtained from male Sprague-Dawley rats (150-180 g) killed by decapitation. The main fat pad blood vessel was removed with forceps and the pads were cut into small pieces. Digestion was carried out at 37° C. in a shaking water bath by treating 1 g of sliced pad for 20 min with 3 ml of 1 mg/ml collagenase (type I, CLS, Worthington) in 1% BSA, fraction V, in KRH (Krebs-Ringer solution buffered with 25 mM HEPES/KOH, pH 7.4, containing 2.5 mM CaCl2, 2 mM glucose, 1 mM sodium pyruvate, 0.5 units/ml adenosin deaminase and 200 nM phenylisopropyl adenosine). The adipocytes were filtered through nylon mesh of sufficient pore size that no pressure other than gentle teasing with a plastic spatula was necessary for the cells to pass through. After three cycles of centrifugation (500 g, 1 min), aspiration of the infranatant. and resuspension in KRH containing 1% BSA, the cells were suspended in KRH containing 4% defatted BSA. Small aliquots of the final suspension were aspirated into capillary hematocrit tubes and centrifuged for 1 min in a Microhematocrit centrifuge in order to determine what fraction of the suspension consisted of fat cells. Results expressed as activities per unit volume of packed adipocytes (corresponding to equivalent numbers of cells) are based on this centrifugation procedure. Lipolysis was initiated by addition of a 100 μl aliquot of the adipocyte suspension to 700 μl of incubation medium [prewarmed to 37° C. and consisting of KRH, 4% defatted BSA and 1 U/ml adenosine deaminase (type I, Sigma)], with or without addition of 8 μl of a solution of the appropriate test substance in 100% DMSO (at a concentration corresponding to 100 times its concentration in the final mixture). […] Incubations were performed in 5 ml polypropylene vials agitated in a shaking water bath (140 cycles/min, amplitude 4.5 cm) at 37° C. for 20, 40, and 60 min. The incubation was terminated by addition of 200 μl of 50 mM EDTA buffered to pH 7.4 with Tris. For the glycerol determination, the whole mixture was mixed rapidly and homogenized with a ground glass pestle in a 1 ml ground glass homogenizing tube (10 pulses). The homogenate was transferred immediately to a 1.5 ml Eppendorf cup precooled to 4° C., after which the extracts were maintained at 4° C. The homogenate was then centrifuged (10,000 g, 15 min) and the infranatant below the fat cake removed with a glass Pasteur pipette. taking care not to aspirate the membrane pellet. and transferred to another Eppendorf cup. 300 μl aliquots of the infranatant were added to 300 μl volumes of 10% (w/v) HClO4. The precipitate was in each case removed by centrifugation (10,000 g, 2 min) and the supernatant neutralized with 20% (w/v) KOH, followed by addition of 50 μl of 1 M Tris/HCl, pH 7.4, A 50 μl sample was then incubated (5 min, 37° C.) with 1 ml of 0.1 M HEPES/KOH, pH 7.5, containing 2 mM ATP, 0.5 mM 4-aminoantipyrine, 1 mM EDTA, 0.5 U glycerol kinase, 4 U glycerol-3-phosphate oxidase, 2 U peroxidase, 2.7 mM p-chlorophenol, 0.04% Triton X-100 and 2 mM MgSO4.7H2O, and the glycerol content determined from the absorbance at 505 nm. For the determination of free fatty acids, 300 μl aliquots of the incubation mixture were added to 3 ml of chloroform/heptane (1:1 v/v) containing 2% (v/v) methanol. and the liberated free fatty acids determined with copper reagent and bathocuproine. The inhibitory activities of the cyclipostins were calculated from the combined results (glycerol and free fatty acid release) by plotting the log of the dose against the percent response (with the adenosine deaminase-induced lipolysis set at 100%). Data in the linear portion of the log (dose)-percent response curves were analyzed using parallel-line bioassay techniques.

T2 sequence (P29274 whole entry): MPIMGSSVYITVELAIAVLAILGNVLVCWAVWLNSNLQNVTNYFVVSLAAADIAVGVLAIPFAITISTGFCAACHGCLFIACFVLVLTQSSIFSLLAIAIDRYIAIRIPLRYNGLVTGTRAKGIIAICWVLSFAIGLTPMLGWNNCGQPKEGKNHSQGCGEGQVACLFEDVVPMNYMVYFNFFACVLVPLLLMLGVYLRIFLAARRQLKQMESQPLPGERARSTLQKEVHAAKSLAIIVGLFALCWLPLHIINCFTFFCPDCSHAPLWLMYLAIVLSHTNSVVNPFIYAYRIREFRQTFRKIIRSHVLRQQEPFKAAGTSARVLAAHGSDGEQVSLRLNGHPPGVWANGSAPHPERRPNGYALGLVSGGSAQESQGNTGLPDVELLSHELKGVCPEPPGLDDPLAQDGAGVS

Structure (SMILES)	EC50 [1] [µM]	EC50 values (agonist activity at adenosine receptors) A2A [2]	EC50 values (agonist activity at adenosine receptors) A2B [3]	EC50 [4] [µM]	Contractile force [5]	Heart rate [5]	IC50 [6] [nM]	melting point [°C]	EC50 ([3]; read-out: EC50 values (agonist activity at adenosine receptors) A2B) [µM]
O[C@@H]1[C@@H](COC(F)(F)F)C[C@@H](n2cnc3c(N[C@H]4CCN(c5ccc(C(F)(F)F)cc5)C4)ncnc32)[C@@H]1O [Example 10, (1R,2S,3R,5R)-3-{6-[1-(4-trifluoromethyl-phenyl-1-yl)-pyrrolidin-3(S)-ylamino]-purin-9-yl}-5-trifluoromethoxymethyl-cyclopentane-1,2-diol]	15.4	Inactive	inactive	> 50	+3% at 30 μM	no effect at 1–100 μM	100	153	
O[C@@H]1[C@@H](CF)C[C@@H](n2cnc3c(N[C@H]4CCN(c5ccc(C(F)(F)F)cc5)C4)ncnc32)[C@@H]1O [Example 7, (1R,2S, 3R, 5S)-3-{6-[1-(4-trifluoromethyl-phenyl-1-yl) -pyrrolidin-3(S)-ylamino]-purin-9-yl}-5-fluoromethyl-cyclopentane-1,2-diol]	1.25	Inactive		> 50	−1% at 30 μM	no effect at 1–100 μM	5	178	> 30
